Read-outs that look alike come from different tables or passages of the source.
Assays:
Plasma stability = assay type: in vitro ADME; conditions: 37°C
Description: After centrifugation, the supernatant was collected and stored at −80°C until analysis. Sample analysis was conducted using a Waters Acquity UPLC and Quattro Premier mass spectrometer operated in a positive electrospray ionization mode with multiple-reaction monitoring (transition [m/z] 395.27 > 362.28, cone voltage 20 V, CID 7 V). […] The injection volume was 3 µL, and the flow rate was 0.4 mL/min. Concentrations were determined by comparison to a calibration curve prepared in blank plasma and processed in the same way as for the samples.

PfA-M1 = molecular target: T1, PfA-M1 (Plasmodium falciparum, UniProt O96935); assay: Recombinant aminopeptidase fluorescence assay (H-Leu-NHMec); assay type: biochemical, P. falciparum
T1 construct: made in house
Description: (§1) Inhibition of aminopeptidase activity assays were performed against nine aminopeptidases: the M1 alanyl and M17 leucyl aminopeptidases from P. falciparum (PfA-M1; PfA-M17), P. vivax (Pv-M1; Pv-M17), and P. berghei (Pb-M1; Pb-M17), and three human M1 homologs: LTA4H (OriGene TP307617), ERAP1 (OriGene TP314469), and ERAP2 (Creative BioMart ERAP2-304H). The Plasmodium enzymes were produced recombinantly as described previously ([16], [17]), and the human recombinant enzymes were purchased from commercial suppliers as indicated.
(§2) The concentration of H-Leu-NHMec in the assay was held constant for each enzyme and ranged from 10 to 100 µM, depending on the enzyme. Reactions were measured at 37°C in white 384-well plates in a total volume of 25 or 50 µL using a spectrofluorimeter (BMG FLUOstar) with excitation at 355 nm and emission at 460 nm. The fluorescence signal was continuously monitored until a final steady-state velocity, v, was obtained. Inhibition constants were calculated from biological triplicates made from three different protein preparations.
(§3) Substrate concentrations were selected to allow sensitive detection of enzyme activity while not exceeding the Km for each enzyme. A compound concentration range was selected to obtain a complete inhibition curve (0%–100 %) in biological triplicate. Where possible, the Ki values were calculated by plotting the initial rates versus inhibitor concentration and fitting to the Morrison equation for tight-binding inhibitors in GraphPad Prism (V.8.4.1; non-linear regression method).

Pf3D7 = assay: Parasite reduction ratio assay; assay type: cell-based, P. falciparum
Description: Assays were performed as described previously with some alterations ([37]). […] Specifically, media containing compound was placed in wells every 24 h for up 120 h. […] Parasite growth was measured at day 21 using SYBR green I as described above. Fluorescence was used to determine at what treatment day wells became positive for growth when compared with the well before it; greater than double the fluorescence was determined to be a positive well. […] Experiments were performed in two or three biological replicates in quadruplicate.

[1] = molecular target: T2, human leukotriene A4 hydrolase (LTA4H) (Homo sapiens, UniProt P09960); assay: Recombinant aminopeptidase fluorescence assay (H-Ala-NHMec); assay type: biochemical; conditions: for inhibition at 1.25 µM: 1.25 µM compound; for inhibition at 10 µM: 10 µM compound; for inhibition at 500 µM: 500 µM compound; for inhibition at 1000 µM: 1000 µM compound
T2 construct: purchased OriGene TP307617
T2 sequence (P09960 1-611): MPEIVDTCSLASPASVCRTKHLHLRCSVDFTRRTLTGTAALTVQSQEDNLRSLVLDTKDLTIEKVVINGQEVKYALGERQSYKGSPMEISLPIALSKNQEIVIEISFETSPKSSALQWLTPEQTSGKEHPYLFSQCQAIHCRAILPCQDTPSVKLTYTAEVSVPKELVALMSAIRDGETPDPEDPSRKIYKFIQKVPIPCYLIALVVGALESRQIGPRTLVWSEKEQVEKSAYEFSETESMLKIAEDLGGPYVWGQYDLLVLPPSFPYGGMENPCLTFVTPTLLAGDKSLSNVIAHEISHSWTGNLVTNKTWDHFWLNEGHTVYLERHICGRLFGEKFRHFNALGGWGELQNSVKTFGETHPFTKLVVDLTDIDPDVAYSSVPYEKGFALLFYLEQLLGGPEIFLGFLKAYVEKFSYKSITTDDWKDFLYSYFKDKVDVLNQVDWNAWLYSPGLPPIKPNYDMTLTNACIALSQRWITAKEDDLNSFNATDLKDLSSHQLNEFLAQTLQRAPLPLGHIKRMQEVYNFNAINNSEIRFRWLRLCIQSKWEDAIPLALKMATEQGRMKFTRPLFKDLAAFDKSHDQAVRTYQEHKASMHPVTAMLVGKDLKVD
Description: as §1
as §2, with “Reactions” for “The concentration of H-Leu-NHMec in the assay was held constant for each enzyme and ranged from 10 to 100 µM, depending on the enzyme. Reactions”
as §3

[2] = system: P. vivax clinical isolates; assay: Ex vivo drug susceptibility assay (schizont maturation) on clinical isolates; assay type: cell-based; conditions: ex vivo clinical isolates, n = 6, read-out: P. vivax median EC50 (range)
Description: (§4) Plasmodium isolates were collected from patients attending public health clinics in Timika (Papua, Indonesia), a region endemic for multidrug-resistant strains of P. vivax and P. falciparum ([38][–][40]). Patients with symptomatic malaria presenting to an outpatient facility were recruited into the study if infected with either P. falciparum or P. vivax, with a parasitemia of between 2,000 µL^−1 and 80,000 µL^−1, and the majority (>60%) of asexual parasites at the ring stage of development. Venous blood (5 mL) was collected by venipuncture, and after removal of patient white blood cells using Plasmodipur filters (EuroProxima B.V., The Netherlands), packed infected red blood cells (iRBCs) were used for the ex vivo drug susceptibility assay.
(§5) Drug plates were pre-dosed by diluting the compounds in 50% methanol followed by lyophilization and storage at 4°C. Drug susceptibility of P. vivax and P. falciparum isolates was measured using a protocol modified from the WHO microtest as described previously ([40], [41]). […] A candle jar was used to mature the parasites at 37.0°C for 35–56 h. […] Thick blood films made from each well were stained with 5% Giemsa solution for 30 min and examined microscopically. The number of schizonts per 200 asexual-stage parasites was determined for each drug concentration and normalized to the control well without drug. The dose response data were analyzed using non-linear regression analysis, and the EC50 value was derived using an inhibitory sigmoid Emax model (In Vitro Analysis and Reporting Tool [IVART] [42, 43]).

[3] = system: P. falciparum clinical isolates; assay: as above; assay type: cell-based; conditions: ex vivo clinical isolates, n = 15, read-out: P. falciparum median EC50 (range)
Description: as §4, §5

Pv-M17 = molecular target: T3, Pv-M17 (Plasmodium vivax, UniProt A5K3U9); assay: Recombinant aminopeptidase fluorescence assay (H-Leu-NHMec); assay type: biochemical, P. vivax; conditions: Pv M17, Morrison equation; read-out: Ki^(app) ± SEM
T3 construct: made in house
Description: as §1, §2, §3

[4] = read-out: Inhibition of aminopeptidase activity

T1 sequence (O96935 whole entry): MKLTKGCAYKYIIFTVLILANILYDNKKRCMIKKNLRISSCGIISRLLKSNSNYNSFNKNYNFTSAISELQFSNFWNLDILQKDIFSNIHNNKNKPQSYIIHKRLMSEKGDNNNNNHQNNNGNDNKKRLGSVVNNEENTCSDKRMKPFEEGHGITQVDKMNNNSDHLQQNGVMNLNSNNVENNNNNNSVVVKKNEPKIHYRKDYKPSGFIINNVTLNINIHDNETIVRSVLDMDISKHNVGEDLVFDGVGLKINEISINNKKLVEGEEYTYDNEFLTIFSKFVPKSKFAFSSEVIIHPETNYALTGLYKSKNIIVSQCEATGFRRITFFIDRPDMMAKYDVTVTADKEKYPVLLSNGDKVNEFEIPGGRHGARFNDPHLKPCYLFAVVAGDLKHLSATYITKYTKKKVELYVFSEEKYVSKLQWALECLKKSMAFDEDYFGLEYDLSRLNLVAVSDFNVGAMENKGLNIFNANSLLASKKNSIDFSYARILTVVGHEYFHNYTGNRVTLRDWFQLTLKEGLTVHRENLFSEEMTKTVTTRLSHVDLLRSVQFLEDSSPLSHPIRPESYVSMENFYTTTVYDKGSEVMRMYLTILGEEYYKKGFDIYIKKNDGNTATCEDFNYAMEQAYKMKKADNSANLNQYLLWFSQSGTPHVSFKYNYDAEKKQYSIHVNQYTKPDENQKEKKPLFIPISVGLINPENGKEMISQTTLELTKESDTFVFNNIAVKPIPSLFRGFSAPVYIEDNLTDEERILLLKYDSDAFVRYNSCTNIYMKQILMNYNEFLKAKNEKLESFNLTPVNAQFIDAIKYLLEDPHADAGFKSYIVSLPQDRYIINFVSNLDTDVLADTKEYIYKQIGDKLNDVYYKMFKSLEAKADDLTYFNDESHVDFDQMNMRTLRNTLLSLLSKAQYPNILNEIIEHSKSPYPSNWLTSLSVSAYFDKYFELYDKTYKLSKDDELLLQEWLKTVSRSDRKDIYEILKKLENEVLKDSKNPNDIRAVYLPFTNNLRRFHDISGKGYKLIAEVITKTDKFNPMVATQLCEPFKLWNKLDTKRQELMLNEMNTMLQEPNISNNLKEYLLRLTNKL
T3 sequence (A5K3U9 74-621): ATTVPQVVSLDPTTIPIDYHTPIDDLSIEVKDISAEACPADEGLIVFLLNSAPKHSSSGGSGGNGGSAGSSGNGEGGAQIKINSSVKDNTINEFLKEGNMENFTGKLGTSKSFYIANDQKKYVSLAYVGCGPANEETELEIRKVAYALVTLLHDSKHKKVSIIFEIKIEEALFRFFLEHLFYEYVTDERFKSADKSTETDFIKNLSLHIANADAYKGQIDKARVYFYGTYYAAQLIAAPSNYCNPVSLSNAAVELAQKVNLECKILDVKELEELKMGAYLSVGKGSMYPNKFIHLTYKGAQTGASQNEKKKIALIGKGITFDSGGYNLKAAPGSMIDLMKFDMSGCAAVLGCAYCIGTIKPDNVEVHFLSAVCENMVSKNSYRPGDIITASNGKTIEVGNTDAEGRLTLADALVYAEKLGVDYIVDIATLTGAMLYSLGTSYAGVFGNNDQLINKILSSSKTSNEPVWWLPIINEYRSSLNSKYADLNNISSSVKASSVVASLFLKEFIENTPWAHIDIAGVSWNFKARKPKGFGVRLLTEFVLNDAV

## CC(C)(C)CC(=O)NC(C(=O)NO)c1ccc(-c2cc(F)c(F)c(F)c2)cc1 (centres unmarked) [MMV1557817, N-(2-(hydroxyamino)−2-oxo-1-(3′,4′,5′-trifluoro-[1,1′-biphenyl]-4-yl)ethyl)-3,3-dimethylbutanamide]
Plasma stability; human plasma
  remaining at 4 h: 97%
Plasma stability; mouse plasma
  remaining at 4 h: 93%
PfA-M1; Pf M1, Morrison equation, read-out: Ki^(app) ± SEM
  Ki: 308 nM
PfA-M1; [4]
  inhibition at 1.25 µM: 83%
  inhibition at 10 µM: 100%
Pf3D7; Pf3D7, 10× EC50
  99.9% PCT: 86 h
  Lag phase: 72 h
Pf3D7; Pf3D7, 10× EC50, over one cycle
  Log (PRR): 2.2 ± 0.2
[1]
  inhibition at 1.25 µM: 18%
  inhibition at 10 µM: 16%
  inhibition at 500 µM: 71%
  inhibition at 1000 µM: 87%
[2]; Plasmodium vivax
  EC50: 69 nM
[2]
  EC50: 68.6 nM
[3]; Plasmodium falciparum
  EC50: 98 nM
[3]
  EC50: 98.1 nM
Pv-M17
  Ki: 208 ± 20 nM

## C[C@H]1[C@H](OC(=O)CCC(=O)O)O[C@@H]2O[C@@]3(C)CC[C@H]4[C@H](C)CC[C@@H]1[C@@]24OO3 [artesunate]
PfA-M1; [4]
  inhibition at 1.25 µM: 4.8%
  inhibition at 10 µM: 11.9%
  inhibition at 500 µM: 16.8%
  inhibition at 1000 µM: 43.2%
[1]
  inhibition at 1.25 µM: 0%
  inhibition at 10 µM: 12.8%
  inhibition at 500 µM: 20.2%
  inhibition at 1000 µM: 36%
[2]; Plasmodium vivax
  EC50: 0.6 nM
[2]
  EC50: 1 nM
[3]; Plasmodium falciparum
  EC50: 1.2 nM
[3]
  EC50: 1 nM

Reference: article PMC11237774, “On-target, dual aminopeptidase inhibition provides cross-species antimalarial activity” (mBio, 2024)
